# According to US11957759B1, “Rapidly accelerated fibrosarcoma (RAF) degrading compounds and associated methods of use” (Arvinas Operations, Inc., priority 2022, dated 2024):
# Tests used:
# B-RAF V600E = target: T1, B-RAF V600E (Homo sapiens, UniProt P15056, V600E); assay: Target protein degradation, assay C: T-Rex 293 cells, HA-BRAF_V600E, 384 well format; type: cell-based; conditions: T-Rex 293 HA-BRAF_V600E cells, 24 hours, Examples 83-269; for DC50: Assay C; for Dmax: T-REx-293, Assay C
# T1 construct: expressed in transfected cells; host or cells: T-Rex 293 cells (Invitrogen #R71007)
# Outline: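 T-Rex 293 cells stably expressing doxycycline-induced (1 ng/mL) HA-BRAF V600E were treated 24 h at 37 °C with compound (300 nM–5 pM, 11 points, 0.5% DMSO). HA immunofluorescence was quantified by high-content imaging to give DC50 and Dmax (% of control); nuclei counts versus DMSO gauged toxicity.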
# B-RAF G466V = target: T2, B-RAF G466V (Homo sapiens, UniProt P15056, G466V); assay: Target protein degradation, assay D: T-Rex 293 cells, HA-BRAF_G466V, 384 well format; type: cell-based; conditions: T-Rex 293 HA-BRAF_G466V cells, 24 hours, Examples 83-269; for DC50: Assay D; for Dmax: T-REx-293, Assay D
# T2 construct: expressed in transfected cells; host or cells: T-Rex 293 cells (Invitrogen #R71007)
# Outline: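 T-Rex 293 cells stably expressing doxycycline-induced (1 ng/mL) HA-BRAF G466V treated 24 h at 37 °C with PROTACs, 11-point 1:3 dilution, 300 nM to 5 pM final, 0.5% DMSO. Fixed cells immunostained for HA and imaged by high-content microscopy; DC50 and Dmax (% of control) derived, toxicity from nuclei counts versus DMSO.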
# T2 sequence (P15056 whole entry G466V): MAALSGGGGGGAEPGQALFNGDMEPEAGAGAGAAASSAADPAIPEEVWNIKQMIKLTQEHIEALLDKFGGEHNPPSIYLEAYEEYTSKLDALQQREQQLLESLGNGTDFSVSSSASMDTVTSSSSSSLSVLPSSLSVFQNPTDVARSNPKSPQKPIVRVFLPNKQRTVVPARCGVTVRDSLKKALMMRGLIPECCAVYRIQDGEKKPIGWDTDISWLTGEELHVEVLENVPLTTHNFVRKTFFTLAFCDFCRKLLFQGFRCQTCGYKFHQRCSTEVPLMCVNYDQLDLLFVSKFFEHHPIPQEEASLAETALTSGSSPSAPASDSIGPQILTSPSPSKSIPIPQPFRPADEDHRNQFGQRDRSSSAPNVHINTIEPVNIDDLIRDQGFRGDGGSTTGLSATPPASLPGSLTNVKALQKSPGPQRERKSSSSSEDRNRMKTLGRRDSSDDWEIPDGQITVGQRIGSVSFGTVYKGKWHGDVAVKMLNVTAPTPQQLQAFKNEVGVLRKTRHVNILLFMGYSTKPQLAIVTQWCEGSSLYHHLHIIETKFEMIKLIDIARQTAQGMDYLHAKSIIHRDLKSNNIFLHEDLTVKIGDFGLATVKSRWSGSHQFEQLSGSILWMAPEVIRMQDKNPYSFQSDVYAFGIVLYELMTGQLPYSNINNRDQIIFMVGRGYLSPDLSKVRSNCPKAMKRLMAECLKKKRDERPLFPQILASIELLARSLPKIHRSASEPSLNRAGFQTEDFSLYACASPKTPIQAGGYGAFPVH
# T1 sequence (P15056 whole entry V600E): as the sequence (P15056 whole entry G466V) above, with V466G, V600E counted along it
smiles,measurement,setting,value
"N#Cc1c(NS(=O)(=O)N2CC[C@@H](F)C2)ccc(F)c1Oc1ccc2ncn(-c3ccc(C4CCN([C@H]5C[C@H](OC6CCN(c7ccc8c(c7)CN(C7CCC(=O)NC7=O)C8=O)CC6)C5)CC4)cc3)c(=O)c2c1 (stereo partly drawn) [Example 249, (3R)—N-(2-cyano-4-fluoro-3-{[4-oxo-3-(4-{1-[(1r,3r)-3-({1-[2-(2,6-dioxopiperidin-3-yl)-1-oxo-2,3-dihydro-1H-isoindol-5-yl]piperidin-4-yl}oxy)cyclobutyl]piperidin-4-yl}phenyl)-3,4-dihydroquinazolin-6-yl]oxy}phenyl)-3-fluoropyrrolidine-1-sulfonamide]",DC50,B-RAF V600E,> 500 nM
same,DC50,B-RAF G466V,1 to 10 nM
same,Dmax,B-RAF G466V,35 to 70%
"N#Cc1c(NS(=O)(=O)N2CC[C@H](F)C2)ccc(F)c1Oc1ccc2ncn(-c3ccc(N4CCN(CC5CN(c6ccc7c(c6)CN([C@H]6CCC(=O)NC6=O)C7=O)C5)CC4)cc3)c(=O)c2c1 [Example 195, (3S)-N-(2-cyano-3-{[3-(4-{4-[(1-{2-[(3S)-2,6-dioxopiperidin-3-yl]-1-oxo-2,3-dihydro-1H-isoindol-5-yl}azetidin-3-yl)methyl]piperazin-1-yl}phenyl)-4-oxo-3,4-dihydroquinazolin-6-yl]oxy}-4-fluorophenyl)-3-fluoropyrrolidine-1-sulfonamide]",DC50,B-RAF V600E,50 to 500 nM
same,Dmax,B-RAF V600E,≤ 35%
same,DC50,B-RAF G466V,1 to 10 nM
same,Dmax,B-RAF G466V,≤ 35%
"N#Cc1c(NS(=O)(=O)N2CC[C@@H](F)C2)ccc(F)c1Oc1ccc2ncn(-c3ccc(N4CCN(CC5CCN(c6ccc(C7CCC(=O)NC7=O)cc6F)CC5)CC4)cc3)c(=O)c2c1 (single isomer, unassigned) [Example 112, (3R)-N-(2-cyano-3-{[3-(4-{4-[(1-{4-[(3R*)-2,6-dioxopiperidin-3-yl]-2-fluorophenyl}piperidin-4-yl)methyl]piperazin-1-yl}phenyl)-4-oxo-3,4-dihydroquinazolin-6-yl]oxy}-4-fluorophenyl)-3-fluoropyrrolidine-1-sulfonamide]",DC50,B-RAF V600E,5 to 50 nM
same,Dmax,B-RAF V600E,35 to 70%
same,DC50,B-RAF G466V,1 to 10 nM
same,Dmax,B-RAF G466V,35 to 70%
"O=C1CCC(N2Cc3cc(N4CCC(CN5CCN(c6ccc(-n7cnc8ccc(Oc9c(F)ccc(NS(=O)(=O)N%10CC[C@@H](F)C%10)c9Cl)cc8c7=O)cc6)CC5)CC4)ccc3C2=O)C(=O)N1 (stereo partly drawn) [Example 199, (3R)-N-{2-chloro-3-[(3-{4-[4-({1-[2-(2,6-dioxopiperidin-3-yl)-1-oxo-2,3-dihydro-1H-isoindol-5-yl]piperidin-4-yl}methyl)piperazin-1-yl]phenyl}-4-oxo-3,4-dihydroquinazolin-6-yl)oxy]-4-fluorophenyl}-3-fluoropyrrolidine-1-sulfonamide]",DC50,B-RAF V600E,50 to 500 nM
same,Dmax,B-RAF V600E,35 to 70%
same,DC50,B-RAF G466V,1 to 10 nM
same,Dmax,B-RAF G466V,35 to 70%
"N#Cc1c(NS(=O)(=O)N2CC[C@@H](F)C2)ccc(F)c1Oc1ccc2ncn(-c3ccc(N4CCN(CCCOc5ccc6c(c5)C(=O)N(C5CCC(=O)NC5=O)C6=O)CC4)nc3)c(=O)c2c1 (stereo partly drawn) [Example 164, (3R)-N-{2-cyano-3-[(3-{6-[4-(3-{[2-(2,6-dioxopiperidin-3-yl)-1,3-dioxo-2,3-dihydro-1H-isoindol-5-yl]oxy}propyl)piperazin--1-yl]pyridin-3-yl}-4-oxo-3,4-dihydroquinazolin-6-yl)oxy]-4-fluorophenyl}-3-fluoropyrrolidine-1-sulfonamide]",DC50,B-RAF V600E,50 to 500 nM
same,Dmax,B-RAF V600E,35 to 70%
same,DC50,B-RAF G466V,≤ 1 nM
same,Dmax,B-RAF G466V,≤ 35%
"CN(c1ccc(-n2cnc3ccc(Oc4c(F)ccc(NS(=O)(=O)N5CC[C@@H](F)C5)c4C#N)cc3c2=O)cc1)C1CCC(N2CCN(c3ccc4c(c3)CN([C@H]3CCC(=O)NC3=O)C4=O)CC2)CC1 (stereo partly drawn) [Example 225, (3R)-N-(2-cyano-4-fluoro-3-{[3-(4-{methyl[(1s,4s)-4-(4-{2-[(3S)-2,6-dioxopiperidin-3-yl]-1-oxo-2,3-dihydro-1H-isoindol-5-yl}piperazin-1-yl)cyclohexyl]amino}phenyl)-4-oxo-3,4-dihydroquinazolin-6-yl]oxy}phenyl)-3-fluoropyrrolidine-1-sulfonamide]",DC50,B-RAF V600E,> 500 nM
same,DC50,B-RAF G466V,10 to 30 nM
same,Dmax,B-RAF G466V,35 to 70%
"CC(C)(C1CCN(c2ncc(-n3cnc4ccc(Oc5c(F)ccc(NS(=O)(=O)N6CC[C@@H](F)C6)c5C#N)cc4c3=O)cn2)CC1)N1CCN(c2ccc3c(c2)C(=O)N(C2CCC(=O)NC2=O)C3=O)CC1 (stereo partly drawn) [Example 152, (3R)-N-{2-cyano-3-[(3-{2-[4-(2-{4-[2-(2,6-dioxopiperidin-3-yl)-1,3-dioxo-2,3-dihydro-1H-isoindol-5-yl]piperazin-1-yl}propan-2-yl)piperidin-1-yl]pyrimidin-5-yl}-4-oxo-3,4-dihydroquinazolin-6-yl)oxy]-4-fluorophenyl}-3-fluoropyrrolidine-1-sulfonamide]",DC50,B-RAF V600E,50 to 500 nM
same,Dmax,B-RAF V600E,35 to 70%
same,DC50,B-RAF G466V,1 to 10 nM
same,Dmax,B-RAF G466V,≤ 35%
"N#Cc1c(NS(=O)(=O)N2CC[C@@H](F)C2)ccc(F)c1Oc1ccc2ncn(-c3ccc(N4CCN(CC5CCN(c6ccc(C7CCC(=O)NC7=O)cn6)CC5)CC4)cc3)c(=O)c2c1 (stereo partly drawn) [Example 91, (3R)-N-{2-cyano-3-[(3-(4-[4-({1-[5-(2,6-dioxopiperidin-3-yl)pyridin-2-yl]piperidin-4-yl}methyl)piperazin-1-yl]phenyl}-4-oxo-3,4-dihydroquinazolin-6-yl)oxy]-4-fluorophenyl}-3-fluoropyrrolidine-1-sulfonamide]",DC50,B-RAF V600E,5 to 50 nM
same,Dmax,B-RAF V600E,35 to 70%
same,DC50,B-RAF G466V,1 to 10 nM
same,Dmax,B-RAF G466V,≤ 35%
N#Cc1c(NS(=O)(=O)N2CC[C@@H](F)C2)ccc(F)c1Oc1ccc2ncn(-c3ccc(N4CC(CN5CC(c6ccc7c(c6)CN([C@H]6CCC(=O)NC6=O)C7=O)C5)C4)cc3)c(=O)c2c1 [Example 204],DC50,B-RAF V600E,50 to 500 nM
same,Dmax,B-RAF V600E,35 to 70%
same,DC50,B-RAF G466V,1 to 10 nM
same,Dmax,B-RAF G466V,≤ 35%
"N#Cc1c(NS(=O)(=O)N2CC[C@@H](F)C2)ccc(F)c1Oc1ccc2ncn(-c3cccc(C4CCN(CC5CCN(c6ccc7c(c6)CN([C@H]6CCC(=O)NC6=O)C7=O)CC5)C4)c3)c(=O)c2c1 (single isomer, unassigned) [Example 259, (3R)-N-{2-cyano-3-[(3-{3-[(3R*)-1-[(1-{2-[(3S)-2,6-dioxopiperidin-3-yl]-1-oxo-2,3-dihydro-1H-isoindol-5-yl}piperidin-4-yl)methyl]pyrrolidin-3-yl]phenyl}-4-oxo-3,4-dihydroquinazolin-6-yl)oxy]-4-fluorophenyl}-3-fluoropyrrolidine-1-sulfonamide]",DC50,B-RAF V600E,50 to 500 nM
same,DC50,B-RAF G466V,1 to 10 nM
"N#Cc1c(NS(=O)(=O)N2CC[C@@H](F)C2)ccc(F)c1Oc1ccc2ncn(-c3cnc(N4CCC(CN5CCC6(CC5)CCN(c5ccc7c(c5)C(=O)N(C5CCC(=O)NC5=O)C7=O)CC6)CC4)nc3)c(=O)c2c1 (stereo partly drawn) [Example 129, (3R)-N-{2-cyano-3-[(3-{2-[4-({9-[2-(2,6-dioxopiperidin-3-yl)-1,3-dioxo-2,3-dihydro-1H-isoindol-5-yl]-3,9-diazaspiro[5.5]undecan-3-yl}methyl)piperidin-1-yl]pyrimidin-5-yl}-4-oxo-3,4-dihydroquinazolin-6-yl)oxy]-4-fluorophenyl}-3-fluoropyrrolidine-1-sulfonamide]",DC50,B-RAF V600E,50 to 500 nM
same,Dmax,B-RAF V600E,35 to 70%
same,DC50,B-RAF G466V,1 to 10 nM
same,Dmax,B-RAF G466V,35 to 70%
N#Cc1c(NS(=O)(=O)N2CC[C@@H](F)C2)ccc(F)c1Oc1ccc2ncn(-c3cnc(N4CCC(C5CN(c6ccc7c(c6)C(=O)N(C6CCC(=O)NC6=O)C7=O)C5)CC4)nc3)c(=O)c2c1 (stereo partly shown) [Example 155],DC50,B-RAF V600E,> 500 nM
same,DC50,B-RAF G466V,1 to 10 nM
same,Dmax,B-RAF G466V,≤ 35%
"N#Cc1c(NS(=O)(=O)N2CC[C@@H](F)C2)ccc(F)c1Oc1ccc2ncn(-c3cccc(C4CCN(CC5CCN(c6ccc7c(c6)CN([C@H]6CCC(=O)NC6=O)C7=O)CC5)C4)c3)c(=O)c2c1 (stereo partly drawn) [Example 211, (3R)-N-(2-cyano-3-{[3-(3-{1-[(1-{2-[(3S)-2,6-dioxopiperidin-3-yl]-1-oxo-2,3-dihydro-1H-isoindol-5-yl}piperidin-4-yl)methyl]pyrrolidin-3-yl}phenyl)-4-oxo-3,4-dihydroquinazolin-6-yl]oxy}-4-fluorophenyl)-3-fluoropyrrolidine-1-sulfonamide]",DC50,B-RAF V600E,50 to 500 nM
same,Dmax,B-RAF V600E,35 to 70%
same,DC50,B-RAF G466V,1 to 10 nM
same,Dmax,B-RAF G466V,35 to 70%
"Cc1c(NS(=O)(=O)N2CC[C@@H](F)C2)ccc(F)c1Oc1ccc2ncn(-c3ccc(N4CCN(CC5CCN(c6ccc7c(c6)CN(C6CCC(=O)NC6=O)C7=O)CC5)CC4)cc3)c(=O)c2c1 (stereo partly drawn) [Example 210, (3R)-N-{3-[(3-{4-[4-({1-[2-(2,6-dioxopiperidin-3-yl)-1-oxo-2,3-dihydro-1H-isoindol-5-yl]piperidin-4-yl}methyl)piperazin-1-yl]phenyl}-4-oxo-3,4-dihydroquinazolin-6-yl)oxy]-4-fluoro-2-methylphenyl}-3-fluoropyrrolidine-1-sulfonamide]",DC50,B-RAF V600E,50 to 500 nM
same,Dmax,B-RAF V600E,35 to 70%
same,DC50,B-RAF G466V,10 to 30 nM
same,Dmax,B-RAF G466V,35 to 70%
"N#Cc1c(NS(=O)(=O)N2CC[C@@H](F)C2)ccc(F)c1Oc1ccc2ncn(-c3ccn(C4CC5(C4)CN(CC4CCN(c6ccc7c(c6)CN(C6CCC(=O)NC6=O)C7=O)CC4)C5)n3)c(=O)c2c1 (stereo partly drawn) [Example 97, (3R)-N-{2-cyano-3-[(3-{1-[2-({1-[2-(2,6-dioxopiperidin-3-yl)-1-oxo-2,3-dihydro-1H-isoindol-5-yl]piperidin-4-yl}methyl)-2-azaspiro[3.3]heptan-6-yl]-1H-pyrazol-3-yl}-4-oxo-3,4-dihydroquinazolin-6-yl)oxy]-4-fluorophenyl}-3-fluoropyrrolidine-1-sulfonamide]",DC50,B-RAF V600E,50 to 500 nM
same,Dmax,B-RAF V600E,35 to 70%
same,DC50,B-RAF G466V,1 to 10 nM
same,Dmax,B-RAF G466V,35 to 70%
